Publication PMC9497135, “Structure-Based Study to Overcome Cross-Reactivity of Novel Androgen Receptor Inhibitors” (Cells, 2022)

Experiments:
[1] = biological target: T1, AR (LNCaP cells, which carry the T878A AR mutation) (Homo sapiens, UniProt P10275, T878A); experiment: eGFP cellular AR transcription assay in LNCaP cells (LN-ARR2PB-eGFP); assay type: cell-based; settings: LNCaP, with R1881, high concentrations
T1 construct: LNCaP cells, which carry the T878A AR mutation; endogenous in cells; host or cells: LNCaP (LN-ARR2PB-eGFP)
T1 sequence (P10275 1-920 T878A): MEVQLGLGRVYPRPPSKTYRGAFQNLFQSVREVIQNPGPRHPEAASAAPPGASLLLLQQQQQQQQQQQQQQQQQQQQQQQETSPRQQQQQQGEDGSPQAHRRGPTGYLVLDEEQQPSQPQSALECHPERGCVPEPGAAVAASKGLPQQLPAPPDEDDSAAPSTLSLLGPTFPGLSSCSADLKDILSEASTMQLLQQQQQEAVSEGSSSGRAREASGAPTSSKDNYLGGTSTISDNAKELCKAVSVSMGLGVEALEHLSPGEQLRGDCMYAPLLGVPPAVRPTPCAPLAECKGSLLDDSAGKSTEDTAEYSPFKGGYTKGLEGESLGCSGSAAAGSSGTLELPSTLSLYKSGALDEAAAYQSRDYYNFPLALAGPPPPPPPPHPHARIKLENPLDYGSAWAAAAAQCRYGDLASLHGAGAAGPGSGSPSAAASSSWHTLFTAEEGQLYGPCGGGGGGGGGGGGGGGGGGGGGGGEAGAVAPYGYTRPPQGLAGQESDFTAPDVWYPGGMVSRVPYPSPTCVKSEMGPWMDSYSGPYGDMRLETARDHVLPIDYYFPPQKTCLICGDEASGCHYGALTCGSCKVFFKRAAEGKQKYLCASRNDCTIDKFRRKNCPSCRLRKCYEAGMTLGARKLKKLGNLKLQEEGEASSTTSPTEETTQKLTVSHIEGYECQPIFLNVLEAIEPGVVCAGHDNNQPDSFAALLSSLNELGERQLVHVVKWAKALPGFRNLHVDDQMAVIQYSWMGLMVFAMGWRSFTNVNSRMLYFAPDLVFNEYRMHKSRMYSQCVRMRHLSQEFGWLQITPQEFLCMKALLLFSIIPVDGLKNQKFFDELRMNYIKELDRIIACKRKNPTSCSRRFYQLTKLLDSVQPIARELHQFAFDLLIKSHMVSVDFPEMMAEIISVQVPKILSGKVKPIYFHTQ
Experimental: AR transcriptional activity was assayed as previously described. Briefly, LNCaP human prostate cancer cells (LN-ARR2PB-eGFP), stably transfected with eGFP reporter driven by an androgen responsive probasin-derived promoter (ARR2PB), were grown in phenol red free RPMI 1640 media supplemented with 5% charcoal stripped serum (CSS). After 5 days, the cells were plated into a 96-well plate (35,000 cells/well) with 0.1 nM of the synthetic androgen R1881 and increasing concentrations (0−100 μM) of test compounds. Fluorescence (excitation 485 nm, emission 535 nm) was measured after 3 days of incubation with the compounds.

[2] = biological target: T1, AR (LNCaP cells, which carry the T878A AR mutation); experiment: as above; assay type: cell-based; settings: eGFP-expressing LNCaP cells, no R1881
wild type AR LBD = biological target: T2, wild type AR LBD (Homo sapiens, UniProt P10275); experiment: Biolayer interferometry (BLI), wild type LBD; assay type: binding
T2 construct: made in house; host or cells: E. coli BL21-DE3 co-transformed with pBirACm
T2 sequence (P10275 669-900 limits assumed): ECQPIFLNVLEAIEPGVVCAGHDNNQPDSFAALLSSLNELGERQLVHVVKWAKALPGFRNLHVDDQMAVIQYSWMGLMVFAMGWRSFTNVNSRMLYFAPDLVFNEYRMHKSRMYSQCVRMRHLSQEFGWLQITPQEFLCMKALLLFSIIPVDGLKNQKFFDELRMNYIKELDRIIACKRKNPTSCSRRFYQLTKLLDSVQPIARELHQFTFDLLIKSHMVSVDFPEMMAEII
Experimental: The direct reversible interaction between small molecules and the AR was quantified by BLI using OctetRED (ForteBio, Fremont, CA, USA). The wild type and T878A-LDB in fusion with an N-terminal (His)6-avidin ([…]) tag were expressed in E. coli BL21-DE3 cells co-transformed with pBirACm plasmid (Avidity), which expresses a biotin ligase leading to the biotynilation of the avidin tag on the LBD. Cells were grown in LB media at 37 °C to an OD600nm = 0.5 and then induced with 0.5 mM isopropyl-β-D-thiogalactoside. A measure of 20 µM of dihydrotestosterone (DHT) and 0.15 mM biotin were added and the cells were incubated at 16 °C for 18 to 20 h. Cells were then resuspended and lysed in buffer containing 500 mM Li2SO4, 50mM HEPES pH7.2, 10% Glycerol, 0.1% Octyl-beta-Glucoside, 20 µM of DHT, 5 mM β-mercaptoethanol, 10 mM imidazole and 0.1 mM phenylmethanesulfonyl fluoride. […] After an overnight dialysis against 150 mM Li2SO4, 50 mM HEPES pH7.2, 10% Glycerol, 0.1% Octyl-beta-Glucoside, 20 µM of DHT and 0.2 mM tris(2-carboxyethyl)phosphine, purified proteins at 50 µg/mL were bound to the super-streptavidin sensors overnight at 4 °C. The assay was performed at 20 °C in the dialysis buffer supplemented with 5% dimethyl sulfoxide (DMSO) which was also used as our reference measurement.

Androgen Receptor ABS = biological target: T3, Androgen Receptor ABS (Rattus norvegicus, UniProt P15207); experiment: Androgen (DHT) displacement, Polar Screen Androgen Receptor Competitor Green Assay Kit; assay type: binding; settings: fluorescence polarization kit
T3 construct: purchased
T3 sequence (P15207 647-902 limits assumed): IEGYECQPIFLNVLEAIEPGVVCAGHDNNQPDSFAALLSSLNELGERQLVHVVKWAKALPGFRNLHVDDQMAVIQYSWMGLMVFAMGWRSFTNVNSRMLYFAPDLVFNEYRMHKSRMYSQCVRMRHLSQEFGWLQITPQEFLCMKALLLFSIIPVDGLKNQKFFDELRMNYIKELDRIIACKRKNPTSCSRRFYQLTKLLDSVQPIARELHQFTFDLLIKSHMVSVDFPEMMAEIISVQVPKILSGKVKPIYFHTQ
Experimental: Androgen displacement was assessed with the Polar Screen Androgen Receptor Competitor Green Assay Kit as per the instructions of the manufacturer.

Structure (SMILES): COc1c(F)cccc1-c1csc(N2CCOCC2)n1 [VPC14368, 4-(4-(3-fluoro-2-methoxyphenyl)thiazol-2-yl)morpholine]
- Partial agonistic effect in eGFP assay [1]: partial agonistic effect
- AR transcriptional activity in the absence of R1881 [2]: enhanced the AR transcriptional activity
- Direct binding to wild-type LBD by BLI (wild type AR LBD): confirmed at high concentrations and in a concentration-dependent manner
- Concentration at which binding is seen (BLI) (wild type AR LBD; Figure 2, 50-300 µM tested): above 100 µM
- Androgen Displacement (Yes/No) (Androgen Receptor ABS): Yes
